# Test results published in patent EP2140864A2 (H. Lundbeck A/S, priority 2001, dated 2002).
# Like-named read-outs stand apart in the source and are kept apart here.
# Key:
# rat 5HT2C receptor = target: T1, rat 5HT2C receptor (Rattus norvegicus, UniProt P08909); assay: Radioligand binding, 5HT2C receptor
# T1 construct: expressed in transfected cells
# T1 sequence (P08909 33-460): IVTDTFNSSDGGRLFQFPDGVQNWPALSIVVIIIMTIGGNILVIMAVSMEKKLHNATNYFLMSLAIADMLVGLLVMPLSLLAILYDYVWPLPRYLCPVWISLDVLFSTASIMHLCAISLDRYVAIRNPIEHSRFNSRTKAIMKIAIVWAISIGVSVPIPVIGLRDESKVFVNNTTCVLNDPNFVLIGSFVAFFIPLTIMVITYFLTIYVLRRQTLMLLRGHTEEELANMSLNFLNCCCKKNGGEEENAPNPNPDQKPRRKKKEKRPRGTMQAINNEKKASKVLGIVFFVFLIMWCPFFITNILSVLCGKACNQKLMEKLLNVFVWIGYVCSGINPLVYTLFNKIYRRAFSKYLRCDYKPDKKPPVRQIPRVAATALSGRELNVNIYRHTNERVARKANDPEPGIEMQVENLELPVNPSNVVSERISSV
# Procedure: Other 5-HT Receptors: Other serotonin receptor binding assays were performed according to published methods: rat 5HT2C receptor (Julius et al., 1988); and 5-HT6 (Monsma, et al., 1993). The binding assays using the 5-HT4 receptor were performed according to the procedures described in U.S. Patent No. 5,766,879, the disclosure of which is hereby incorporated by reference in its entirety into this application.
# (§1) Binding data were analyzed using nonlinear regression and statistical techniques available in the GraphPAD Prism package (San Diego, CA). Enzymatic assay data were derived from a standard curve of reference compound data.
# human 5HT1F = target: T2, human 5HT1F (Homo sapiens, UniProt P30939); assay: Radioligand binding, 5HT1F receptor ([3H]-serotonin)
# T2 construct: expressed in transfected cells
# T2 sequence (P30939 1-366): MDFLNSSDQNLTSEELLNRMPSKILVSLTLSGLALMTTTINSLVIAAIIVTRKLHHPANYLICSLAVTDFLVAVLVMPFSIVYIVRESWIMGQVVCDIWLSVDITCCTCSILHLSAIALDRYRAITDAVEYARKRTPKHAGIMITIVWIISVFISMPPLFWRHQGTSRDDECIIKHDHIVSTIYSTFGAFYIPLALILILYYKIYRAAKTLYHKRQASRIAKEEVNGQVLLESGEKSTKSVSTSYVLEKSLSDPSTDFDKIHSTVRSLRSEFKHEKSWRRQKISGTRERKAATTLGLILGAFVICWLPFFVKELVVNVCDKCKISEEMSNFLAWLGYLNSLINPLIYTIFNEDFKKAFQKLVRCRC
# Procedure: Human 5HT1B, 5HT1D, 5HT1E, 5HT1F, and 5HT7 Receptors: The cell lysates of LM(tk-) clonal cell line stably transfected with the genes encoding each of these 5HT receptor-subtypes were prepared as described above. Cell membranes were suspended in 50mM Tris-HCl buffer (pH 7.4 at 37°C) containing 10 mM MgCl2, 0.2 mM EDTA, 10 µM pargyline, and 0.1% ascorbate. […] Nonspecific binding was determined in the presence of 10 µM serotonin. The bound radioligand was separated by filtration through GF/B filters using a cell harvester.
# as §1
# human dopamine D4 = target: T3, human dopamine D4 (Homo sapiens, UniProt P21917); assay: Radioligand binding, dopamine D4 receptor
# T3 construct: purchased BioSignal, Inc. (Montreal, Canada)
# T3 sequence (P21917 1-419): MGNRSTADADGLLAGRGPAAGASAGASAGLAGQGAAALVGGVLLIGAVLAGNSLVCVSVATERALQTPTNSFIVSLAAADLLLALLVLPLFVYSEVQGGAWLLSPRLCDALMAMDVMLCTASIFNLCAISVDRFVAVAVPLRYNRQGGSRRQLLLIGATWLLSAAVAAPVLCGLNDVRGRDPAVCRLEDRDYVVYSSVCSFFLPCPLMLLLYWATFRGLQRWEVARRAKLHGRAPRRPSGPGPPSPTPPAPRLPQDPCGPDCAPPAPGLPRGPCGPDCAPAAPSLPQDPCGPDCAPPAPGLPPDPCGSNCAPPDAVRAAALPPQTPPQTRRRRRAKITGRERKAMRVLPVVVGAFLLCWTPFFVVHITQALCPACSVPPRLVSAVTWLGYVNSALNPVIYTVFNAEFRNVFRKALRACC
# Description: (§2) Other receptors: Cell membranes expressing human dopamine D1, D2, D4 and rat D3 receptors were purchased through BioSignal, Inc. (Montreal, Canada). Binding assays using the histamine H1 receptor; dopamine receptors; and α1A, α1E, and α2 adrenergic receptors may be carried out according to the procedures described in U.S. Patent No. 5,780,485, the disclosure of which is hereby incorporated by reference in its entirety into this application. Binding assays using the dopamine D5 receptor may be carried out according to the procedures described in U.S. Patent No. 5,882,855, the disclosure of which is hereby incorporated by reference in its entirety into this application. Binding assays for the human α1D adrenergic receptor may be carried out according to the procedures described in U.S. Patent No. 6,156,518, the disclosure of which is hereby incorporated by reference in its entirety into this application.
# as §1
# human α2B adrenoceptor = target: T4, human α2B adrenoceptor (Homo sapiens, UniProt P18089); assay: Radioligand binding, α2B adrenergic receptor
# T4 construct: expressed in transfected cells
# T4 sequence (P18089 1-450): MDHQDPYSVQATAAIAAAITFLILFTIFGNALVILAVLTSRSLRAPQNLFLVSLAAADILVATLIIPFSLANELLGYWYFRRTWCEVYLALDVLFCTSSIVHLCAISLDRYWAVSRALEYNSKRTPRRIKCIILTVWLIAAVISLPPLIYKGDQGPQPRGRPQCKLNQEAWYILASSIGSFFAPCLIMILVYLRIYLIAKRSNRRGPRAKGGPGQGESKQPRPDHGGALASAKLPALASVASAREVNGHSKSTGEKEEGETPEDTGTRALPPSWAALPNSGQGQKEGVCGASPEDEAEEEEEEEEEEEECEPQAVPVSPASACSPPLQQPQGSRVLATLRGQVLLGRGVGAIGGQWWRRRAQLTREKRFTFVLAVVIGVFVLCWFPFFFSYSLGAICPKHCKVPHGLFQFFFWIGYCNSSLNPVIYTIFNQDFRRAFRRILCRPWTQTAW
# Description: as §2, §1
# [1] = Table 8; Ki r5HT2C divided by Ki hGAL3
# [2] = Table 8; Ki h5HT1F divided by Ki hGAL3
# [3] = Table 10; Ki hD4 divided by Ki hGAL3
# [4] = Table 10; Ki hα2B divided by Ki hGAL3
SMILES,Ki (rat 5HT2C receptor; Table 7; read-out: r5HT2C Ki) [µM],selectivity ratio r5HT2C (rat 5HT2C receptor; [1]),Ki (human 5HT1F; Table 7; read-out: h5HT1F Ki) [µM],selectivity ratio h5HT1F (human 5HT1F; [2]),Ki (human dopamine D4; Table 9; read-out: hD4 Ki) [µM],selectivity ratio hD4 (human dopamine D4; [3]),Ki (human α2B adrenoceptor; Table 9; read-out: hα2B Ki) [µM],selectivity ratio hα2B (human α2B adrenoceptor; [4]),Ki (rat 5HT2C receptor; read-out: r5HT2C Ki; Table 7) [µM],Ki (human 5HT1F; read-out: h5HT1F Ki; Table 7) [µM],Ki (human dopamine D4; read-out: hD4 Ki; Table 9) [µM],Ki (human α2B adrenoceptor; read-out: hα2B Ki; Table 9) [µM]
"O=C1C(=Nc2cccc(Cl)c2)c2ccccc2N1c1ccccc1 [Example 94, 3-[(3-CHLOROPHENYL)IMINO]-1-PHENYL-1,3-DIHYDRO-2H-INDOL-2-ONE]",4.1,>30,5.68,>100,> 50,>100,45.4,>100,,,,
COc1cccc(Nc2cc(N3CCCCC3)nc(N(C)CCc3c[nH]c4ccccc34)n2)c1 [Example 17],0.562,6,10.3,>100,22.2,>100,38.7,>100,,,,
Cc1ccc(Nc2cc(N3CCCCC3)nc(N(C)CCc3ccccc3)n2)cc1 [Example 22],1.72,>30,5.77,>100,11.6,>100,5.76,>100,,,,
"O=C1C(=Nc2ccc(Br)cc2)c2ccccc2N1c1ccccc1 [Example 98, 3-[(4-BROMOPHENYL)IMINO]-1-PHENYL-1,3-DIHYDRO-2H-INDOL-2-ONE]",2.26,>30,3.36,>30,> 50,>100,> 50,>100,,,,
COC[C@@H]1[C@@H](c2ccccc2)OCCN1c1nc(Nc2ccc(C)cc2)cc(N2CCCCC2)n1 [Example 49],,>30,,>30,,>100,,>100,6.69,8.89,45.8,25.4
"O=C1C(=Nc2ccc(C(F)(F)F)cc2)c2ccccc2N1c1ccccc1 [Example 95, 1-PHENYL-3-[[4-(TRIFLUOROMETHYL)PHENYL]IMINO]-1,3-DIHYDRO-2H-INDOL-2-ONE]",3.47,>100,4.45,>100,> 50,>100,> 50,>100,,,,
CN(C)c1cc(Nc2ccc(Cl)c(Cl)c2)nc(Nc2ccccc2)n1 [Example 60],1.78,21,2.12,25,48.8,>100,> 50,>100,,,,
"O=C1C(=Nc2cccc(C(F)(F)F)c2)c2ccccc2N1c1ccccc1 [Example 92, 1-PHENYL-3- [[3-(TRIFLUOROMETHYL)PHENYL]IMINO]-1,3-DIHYDRO-2H-INDOL-2-ONE]",,,,>100,,>100,,>100,,,,
Cc1ccc(Nc2cc(N3CCCCC3)nc(N3CCN(c4ncccc4C(F)(F)F)CC3)n2)cc1 [Example 34],2.08,>30,4.8,>100,18.7,>100,15.5,>100,,,,
CN(CCc1c[nH]c2ccccc12)c1nc(Nc2ccc(F)c(F)c2)cc(N2CCCCC2)n1 [Example 15],0.572,8,4.19,>30,13.2,>30,24.5,>100,,,,
Cc1ccc(Nc2cc(N(C)C)nc(N(C)CCc3c[nH]c4ccccc34)n2)cc1 [Example 77],0.456,6,3.24,>30,0.504,6,7.78,>30,,,,
"O=C1C(=Nc2ccc(Cl)cc2)c2ccccc2N1c1ccccc1 [Example 97, 3-[(4-CHLOROPHENYL)IMINO]-1-PHENYL-1,3-DIHYDRO-2H-INDOL-2-ONE]",1.95,>30,4.16,>30,> 50,>100,> 50,>100,,,,
Cc1ccc(Nc2cc(N3CCCCC3)nc(N(C)CCc3c[nH]c4ccccc34)n2)cc1 [Example 11],0.802,9,1.78,20,4.83,>30,10.2,>100,,,,
